Laboratory results as given in the CheMixHub viscosity set.

Assay: xn = mol fraction of the nth substance listed

Cl[Si](Cl)(Cl)Cl + COCOC
303.1 K, 101 kPa
Conditions	viscosity [mPa·s]
x2 = 0.0989	0.419
x2 = 0.1906	0.412
x2 = 0.2879	0.402
x2 = 0.3682	0.405
x2 = 0.3933	0.41
x2 = 0.4424	0.414
x2 = 0.5106	0.428
x2 = 0.596	0.458
x2 = 0.6589	0.472
x2 = 0.7083	0.461
x2 = 0.7984	0.434
x2 = 0.8477	0.414
x2 = 0.9026	0.369

CCC#N + CC(=O)N(C)C
303.15 K, 101.33 kPa
Conditions	viscosity [mPa·s]
x1 = 0.0953	0.8264
x1 = 0.2	0.7648
x1 = 0.3021	0.7092
x1 = 0.3926	0.6613
x1 = 0.4985	0.6082
x1 = 0.595	0.5621
x1 = 0.699	0.5131
x1 = 0.795	0.4684
x1 = 0.9013	0.425

CC(C)[C@@H]1CC[C@@H](C)C[C@H]1O + CCC(O)CO
Conditions	viscosity [mPa·s]
298.15 K, 101.33 kPa, x1 = 0.5	88.2

CCCCCCCCCCO + CCCCCC
viscosity [mPa·s]
Conditions	298.15 K	313.15 K
101 kPa, x1 = 0.1542	0.53	0.436
101 kPa, x1 = 0.2062	0.652	0.522
101 kPa, x1 = 0.2913	0.903	0.696
101 kPa, x1 = 0.4059	1.404	1.025
101 kPa, x1 = 0.5224	2.204	1.524
101 kPa, x1 = 0.604	3.005	2.014
101 kPa, x1 = 0.7085	4.435	2.85
101 kPa, x1 = 0.8065	6.289	3.857
101 kPa, x1 = 0.8728	7.898	4.705
101.3 kPa, x1 = 0.0533	0.372	–
101.3 kPa, x1 = 0.1124	0.458	–
101.3 kPa, x1 = 0.1601	0.545	–
101.3 kPa, x1 = 0.208	0.651	–
101.3 kPa, x1 = 0.2525	0.733	–
101.3 kPa, x1 = 0.3012	0.929	–
101.3 kPa, x1 = 0.4024	1.377	–
101.3 kPa, x1 = 0.5028	2.028	–
101.3 kPa, x1 = 0.6001	2.934	–
101.3 kPa, x1 = 0.7019	4.26	–
101.3 kPa, x1 = 0.7954	5.923	–
101.3 kPa, x1 = 0.8487	7.108	–
101.3 kPa, x1 = 0.9002	8.453	–
101.3 kPa, x1 = 0.9622	10.36	–

Cc1ccccc1C + CC(C)CC(C)(C)C
308.15 K, 101 kPa
Conditions	viscosity [mPa·s]
x2 = 0.1337	0.6095
x2 = 0.2492	0.5663
x2 = 0.3373	0.539
x2 = 0.4352	0.5141
x2 = 0.5589	0.4878
x2 = 0.6421	0.4734
x2 = 0.7365	0.4602
x2 = 0.8167	0.4525
x2 = 0.917	0.4417

CCCCCCCCCCO + CCCCCCCCO
viscosity [mPa·s], 101.8 kPa
Conditions	x2 = 0.1199	x2 = 0.3407	x2 = 0.5487	x2 = 0.7394	x2 = 0.918
298.15 K	11.14	10.21	9.324	8.588	7.888
308.15 K	7.791	7.162	6.608	6.092	5.658
318.15 K	5.571	5.156	4.78	4.438	4.135

OCCOCCOCCO + C[N+](C)(C)CCO.[Cl-]
Conditions	viscosity [mPa·s]
298.15 K, 101 kPa, x2 = 0.25	72.3

COC=O + O=C1CCCO1
298.15 K, 101.33 kPa
Conditions	viscosity [mPa·s]
x1 = 0.0499	1.589
x1 = 0.1025	1.457
x1 = 0.153	1.367
x1 = 0.2017	1.262
x1 = 0.2492	1.175
x1 = 0.303	1.08
x1 = 0.4004	0.913
x1 = 0.4594	0.821
x1 = 0.5053	0.747
x1 = 0.5599	0.678
x1 = 0.6177	0.611
x1 = 0.7071	0.515
x1 = 0.7556	0.456
x1 = 0.8	0.426
x1 = 0.8515	0.38
x1 = 0.9005	0.344
x1 = 0.9511	0.331

c1ccc(Oc2ccccc2)cc1 + CCOCC
298.15 K, 101 kPa
Conditions	viscosity [mPa·s]
x2 = 0.0704	3.158
x2 = 0.1318	2.737
x2 = 0.2193	2.153
x2 = 0.3297	1.631
x2 = 0.4245	1.258
x2 = 0.5102	0.9926
x2 = 0.6076	0.7614
x2 = 0.7088	0.5733
x2 = 0.7826	0.4552
x2 = 0.9092	0.3106

CCCCCCCCCCO + COC(=O)OC
viscosity [mPa·s], 100 kPa
Conditions	x2 = 0.1001	x2 = 0.2001	x2 = 0.3	x2 = 0.4	x2 = 0.5002	x2 = 0.6	x2 = 0.7001	x2 = 0.8	x2 = 0.9
303.15 K	7.04	5.107	3.812	2.818	2.121	1.582	1.196	0.901	0.683
308.15 K	5.988	4.394	3.309	2.477	1.885	1.423	1.084	0.831	0.637
313.15 K	5.091	3.804	2.897	2.191	1.686	1.288	0.991	0.772	0.596
318.15 K	4.385	3.313	2.552	1.953	1.519	1.167	0.913	0.716	0.559
323.15 K	3.777	2.903	2.258	1.751	1.37	1.069	0.843	0.667	0.526

CCC#N + CCCCOC(C)=O
303.15 K, 101.33 kPa
Conditions	viscosity [mPa·s]
x1 = 0.11	0.6161
x1 = 0.2014	0.5958
x1 = 0.2942	0.5799
x1 = 0.4034	0.5557
x1 = 0.5034	0.5332
x1 = 0.594	0.5076
x1 = 0.7008	0.4785
x1 = 0.798	0.4496
x1 = 0.8966	0.419
